The values below come from patent publication US9067926B2, “Fluoromethyl-5,6-dihydro-4H-[1,3]OXAZINES” (F. Hoffmann-La Roche AG, priority 2012, dated 2015).

Series [1] in a line: Detection of glutathione conjugates (GSH). Type of series: in vitro ADME, human. Details: key: NF = in vitro no adduct formation relative to control. The conditions noted are these: in vitro, relative to control. The text has this:
Detection of Glutathione Conjugates (GSH) The assay conditions for the detection of glutathione conjugates follow the procedure described by C. M. Dieckhaus et al. in Chem. Res. Toxicol. 2005, 18, 630-63.

In a further series the target is hERG (Homo sapiens, UniProt Q12809). Description: hERG current measurement (automated patch clamp). Type of series: cell-based. As for the experimental part:
The hERG current measurement was performed at an automated patch clamp system following the procedure described in R. E. Martin et al. in Bio org.
For orientation: hERG is a cardiac potassium channel; its block is linked to QT prolongation.

The next series deals with Aβ40 in brain. Description: In vivo inhibition of Aβ40 in brain of wild-type mice. The conditions noted are these: Mus musculus, po; 10 mg/kg p.o., brain Aβ40 after 4 h, female C57Bl/6J mice; read-out: in vivo effect, Percentage of control @ 10 mg/kg p.o. How it is done:
In Vivo Experiments. […] The test compound was dissolved in 5% EtOH, 10% Solutol and was applied per os at 10 ml/kg. After 4 h the animals were sacrificed and brain and plasma were collected. The brain was cut into halves and immediately frozen on dry ice. Brain was used for measurement of Aβ40 and plasma was used for determination of compound exposure. […] Brain tissue was homogenized in 2% DEA buffer in a Roche […] (20'', 4000 rpm) and subsequently centrifuged for 1 h at 100'000 g. DEA was reduced to 0.2% in 50 mM NaCl and one half of the DEA lysate was passed over an Oasis Solid Phase extraction plate (Waters; Cat.Nr. 186000679) which had been activated with MeOH and equilibrated in dH2O (1 ml each). After washes in 10% and 30% MeOH (1 ml each) the AP-peptides were eluted in 0.8 ml 2% NH4OH in 90% MeOH. […] Aβ40 was determined by an AlphaLISA assay (Perkin Elmer). In a white 96well half-area microplate (Perkin Elmer Cat.Nr. 6005561), 20 μl of the reconstituted sample were mixed with 5 μl biotinylated BAP-24 (specific for C-terminus of Aβ40 (Brockhaus, M.; Grunberg, J.; Rohrig, S.; Loetscher, H.; Wittenburg, N.; Baumeister, R.; Jacobsen, […]. Caspase-mediated cleavage is not required for the activity of presenilins in amyloidogenesis and NOTCH signaling. […] The mix was incubated for 1 h at RT in the dark. Then 20 μl Streptavin-coated Donor Beads (Perkin Elmer Cat. Nr. 6760002, final dilution 1:125) were added and this final mix was incubated in the dark for another 30 min at r.t. before RFU was measured in an AlphaScreen Reader(Perkin Elmer Envision 2104).

Series [2] addresses T1, recombinant human cathepsin E (Homo sapiens, UniProt P14091).
T1 construct: purchased R&D Systems
T1 sequence (P14091 54-396): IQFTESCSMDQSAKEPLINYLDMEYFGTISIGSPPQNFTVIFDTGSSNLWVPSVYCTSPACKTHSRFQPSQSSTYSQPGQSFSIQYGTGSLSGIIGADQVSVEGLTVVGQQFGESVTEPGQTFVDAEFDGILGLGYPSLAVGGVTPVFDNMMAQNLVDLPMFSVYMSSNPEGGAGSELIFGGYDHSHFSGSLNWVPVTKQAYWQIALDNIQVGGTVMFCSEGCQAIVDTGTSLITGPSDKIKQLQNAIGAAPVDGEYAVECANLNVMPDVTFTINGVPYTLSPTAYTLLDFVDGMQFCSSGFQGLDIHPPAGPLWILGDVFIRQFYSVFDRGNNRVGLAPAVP
The series is described as follows: Cathepsin E fluorescent substrate kinetic assay. Type of series: biochemical. The conditions noted are these: pH 4.5. An excerpt:
(§1) Cathepsin D and Cathepsin E Fluorescent Substrate Kinetic Assays
(§2) The MR121 fluorescence assays described below are based on the fact that MR121 forms a non-fluorescent ground state complex with tryptophan. In solution this formation occurs at millimolar concentrations of tryptophan. The mechanism can be used to design a generic biochemical assay for proteases. […] In absence of protease activity, the substrates remain intact and the MR121 fluorescence is reduced by the high local Trp-concentration. If the substrates are cleaved by the enzymes the MR121 fluorescence is recovered.
(§3) The fluorescent substrate cathepsin D and cathepsin E kinetic assays were performed at room temperature in 384-well microtiter plates (black with clear flat bottom, non binding surface plates from Corning) in a final volume of 51 μl. The test compounds were serially diluted in DMSO (15 concentrations, 1/3 dilution steps) and 1 μl of diluted compounds were mixed for 10 min with 40 μl of cathepsin D (from human liver, Calbiochem) diluted in assay buffer (100 mM sodium acetate, 0.05% BSA, pH 5.5; final concentration: 200 nM) or with 40 μl of recombinant human cathepsin E (R&D Systems) diluted in assay buffer (100 mM sodium acetate, 0.05% BSA, pH 4.5; final concentration: 0.01 nM). […] The slope in the linear range of the kinetic was calculated and the IC50 of the test compounds were determined using a four parameter equation for curve fitting.

Series [3] addresses T2, cathepsin D (from human liver) (Homo sapiens, UniProt P07339).
T2 construct: cathepsin D (from human liver, Calbiochem) diluted in assay buffer; purchased Calbiochem; host or cells: human liver
The series is described as follows: Cathepsin D fluorescent substrate kinetic assay. The conditions noted are these: pH 5.5. Type of series: biochemical.
Text: as §1, §2, §3

The target of the next series is T3, CYP3A4 (Homo sapiens, UniProt P08684).
T3 construct: 0.2 mg/ml pooled human liver microsomes; from tissue; host or cells: pooled human liver microsomes
T3 sequence (P08684 whole entry): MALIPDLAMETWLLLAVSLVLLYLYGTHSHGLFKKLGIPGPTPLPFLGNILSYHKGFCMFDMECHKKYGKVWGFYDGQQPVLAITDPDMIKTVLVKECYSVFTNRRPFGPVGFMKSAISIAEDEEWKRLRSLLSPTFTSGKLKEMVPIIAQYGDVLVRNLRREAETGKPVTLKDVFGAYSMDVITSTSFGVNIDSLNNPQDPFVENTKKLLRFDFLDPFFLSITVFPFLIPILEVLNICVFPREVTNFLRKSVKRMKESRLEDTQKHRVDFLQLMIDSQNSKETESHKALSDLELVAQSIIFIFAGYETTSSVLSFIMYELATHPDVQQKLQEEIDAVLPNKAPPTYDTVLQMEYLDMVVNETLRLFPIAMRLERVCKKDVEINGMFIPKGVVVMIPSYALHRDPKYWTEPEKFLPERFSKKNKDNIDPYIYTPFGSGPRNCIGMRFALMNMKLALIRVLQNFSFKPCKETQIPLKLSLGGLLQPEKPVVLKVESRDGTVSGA
Description: CYP inhibition assay, CYP3A4. Type of series: in vitro ADME. As to conditions: pooled human liver microsomes, midazolam substrate; read-out: CYP IC50 3A4. As for the experimental part: (§4) Inhibition of cytochromes P450 (CYPs) 2C9, 2D6 and 3A4 was assessed using human liver microsomes and CYP-selective substrate metabolism reactions. […] Quenched incubates were stored at −20° C. for at least 1 hour before centrifugation (20,000×g, 20 minutes). Supernatants were removed and diluted 1:1 with water prior to analysis using a RapidFire sample injector system and API4000 mass spectrometer. Peak areas for substrate, metabolite and stable-labelled metabolite standard were determined using MS/MS. The peak area ratios between the metabolite generated by the enzymatic reaction and the internal standard were used in subsequent calculations. The percentage of (DMSO) control activity was calculated for each incubate and IC50 values estimated by non-linear regression. Sulfaphenazole, quinidine or ketoconazole were tested in each CYP2C9, CYP2D6 or CYP3A4 inhibition experiment, respectively, to ensure assay sensitivity and reproducibility.
In general terms: Liver microsomes are a subcellular fraction often used to study metabolism.

The target of the next series is T4, CYP2D6 (Homo sapiens, UniProt P10635).
T4 construct: 0.2 mg/ml pooled human liver microsomes; from tissue; host or cells: pooled human liver microsomes
T4 sequence (P10635 whole entry): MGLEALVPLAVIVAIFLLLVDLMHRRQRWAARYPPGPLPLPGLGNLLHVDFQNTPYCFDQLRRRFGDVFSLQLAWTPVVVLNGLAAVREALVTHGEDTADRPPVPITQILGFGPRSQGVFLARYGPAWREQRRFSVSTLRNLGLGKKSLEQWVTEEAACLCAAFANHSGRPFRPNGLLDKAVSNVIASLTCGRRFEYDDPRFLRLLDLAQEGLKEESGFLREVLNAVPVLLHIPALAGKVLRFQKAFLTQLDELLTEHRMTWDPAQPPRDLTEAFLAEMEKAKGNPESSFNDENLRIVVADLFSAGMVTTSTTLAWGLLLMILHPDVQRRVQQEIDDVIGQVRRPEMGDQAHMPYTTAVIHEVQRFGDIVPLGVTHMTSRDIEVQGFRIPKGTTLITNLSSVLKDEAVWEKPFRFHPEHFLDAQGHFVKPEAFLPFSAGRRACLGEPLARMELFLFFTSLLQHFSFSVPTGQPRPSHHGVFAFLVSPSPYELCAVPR
The series is described as follows: CYP inhibition assay, CYP2D6. The class given is in vitro ADME. As to conditions: pooled human liver microsomes, dextromethorphan substrate; read-out: CYP IC50 2D6. How it is done: as §4

A further series has as its target T5, CYP2C9 (Homo sapiens, UniProt P11712).
T5 construct: 0.2 mg/ml pooled human liver microsomes; from tissue; host or cells: pooled human liver microsomes
The series is described as follows: CYP inhibition assay, CYP2C9. Type of series: in vitro ADME. As to conditions: pooled human liver microsomes, diclofenac substrate; read-out: CYP IC50 2C9. As for the experimental part:
as §4

Some results are limits rather than exact numbers.

T5 sequence (P11712 whole entry): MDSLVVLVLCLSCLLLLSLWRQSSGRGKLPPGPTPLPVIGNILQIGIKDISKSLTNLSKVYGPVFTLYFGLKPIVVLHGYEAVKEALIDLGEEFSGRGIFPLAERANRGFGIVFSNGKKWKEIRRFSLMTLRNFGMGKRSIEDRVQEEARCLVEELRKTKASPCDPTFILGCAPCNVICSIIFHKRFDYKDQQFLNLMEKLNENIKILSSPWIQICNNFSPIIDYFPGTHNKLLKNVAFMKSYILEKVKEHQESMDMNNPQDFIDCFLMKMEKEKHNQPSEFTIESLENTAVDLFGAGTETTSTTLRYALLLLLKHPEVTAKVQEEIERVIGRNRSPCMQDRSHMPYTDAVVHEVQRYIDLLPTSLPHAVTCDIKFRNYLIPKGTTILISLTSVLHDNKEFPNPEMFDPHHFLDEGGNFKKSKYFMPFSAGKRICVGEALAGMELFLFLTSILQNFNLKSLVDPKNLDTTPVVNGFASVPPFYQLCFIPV
Chain of hERG (Q12809 whole entry): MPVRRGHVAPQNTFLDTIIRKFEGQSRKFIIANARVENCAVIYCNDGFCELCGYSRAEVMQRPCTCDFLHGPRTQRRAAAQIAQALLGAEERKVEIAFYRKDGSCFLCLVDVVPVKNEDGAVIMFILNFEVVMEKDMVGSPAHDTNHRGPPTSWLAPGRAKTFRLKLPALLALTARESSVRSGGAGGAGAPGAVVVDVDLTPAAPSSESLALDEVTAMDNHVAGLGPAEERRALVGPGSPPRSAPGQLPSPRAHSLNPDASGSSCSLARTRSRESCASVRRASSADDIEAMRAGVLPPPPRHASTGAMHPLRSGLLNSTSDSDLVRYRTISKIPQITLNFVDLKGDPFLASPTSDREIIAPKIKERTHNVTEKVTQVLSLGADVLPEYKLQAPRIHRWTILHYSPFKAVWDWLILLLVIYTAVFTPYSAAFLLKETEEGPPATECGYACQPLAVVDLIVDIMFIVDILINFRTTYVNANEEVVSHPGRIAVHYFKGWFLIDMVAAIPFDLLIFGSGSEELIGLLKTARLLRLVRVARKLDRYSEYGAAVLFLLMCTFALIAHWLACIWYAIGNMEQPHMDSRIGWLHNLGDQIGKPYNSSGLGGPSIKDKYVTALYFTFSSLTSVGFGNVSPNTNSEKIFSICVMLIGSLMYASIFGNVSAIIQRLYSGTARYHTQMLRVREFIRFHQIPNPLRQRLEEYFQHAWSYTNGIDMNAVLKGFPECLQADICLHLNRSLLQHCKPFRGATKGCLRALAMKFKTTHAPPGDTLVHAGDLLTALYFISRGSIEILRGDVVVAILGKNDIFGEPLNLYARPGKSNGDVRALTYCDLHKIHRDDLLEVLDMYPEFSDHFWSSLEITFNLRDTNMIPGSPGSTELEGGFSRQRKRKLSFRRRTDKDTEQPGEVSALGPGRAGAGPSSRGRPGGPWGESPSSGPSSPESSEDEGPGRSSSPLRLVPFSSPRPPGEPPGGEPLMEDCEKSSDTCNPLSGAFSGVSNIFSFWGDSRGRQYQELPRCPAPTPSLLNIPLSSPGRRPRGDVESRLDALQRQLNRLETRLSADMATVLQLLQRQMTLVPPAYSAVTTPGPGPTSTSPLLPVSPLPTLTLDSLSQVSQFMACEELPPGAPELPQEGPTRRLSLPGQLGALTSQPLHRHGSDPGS
T2 sequence (P07339 65-412): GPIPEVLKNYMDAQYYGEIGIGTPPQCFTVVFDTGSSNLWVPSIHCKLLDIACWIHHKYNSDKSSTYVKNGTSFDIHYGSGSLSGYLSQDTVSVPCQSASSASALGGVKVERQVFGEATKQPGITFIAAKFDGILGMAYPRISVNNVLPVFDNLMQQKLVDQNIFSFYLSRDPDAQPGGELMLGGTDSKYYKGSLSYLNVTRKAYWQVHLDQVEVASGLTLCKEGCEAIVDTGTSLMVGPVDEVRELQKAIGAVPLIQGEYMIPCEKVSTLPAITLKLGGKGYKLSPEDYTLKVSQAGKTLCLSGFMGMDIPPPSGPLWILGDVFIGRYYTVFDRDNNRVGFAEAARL

For orientation: IC50 means the concentration needed to halve the response being measured. As for `COc1cnc(C(=O)Nc2ccc(F)c([C@]3(CF)C[C@@H](C(F)(F)F)OC(N)=N3)c2)cn1` [Example 36, N-(3-((4S,6S)-2-Amino-4-(fluoromethyl)-6-(trifluoromethyl)-5,6-dihydro-4H-1,3-oxazin-4-yl)-4-fluorophenyl)-5-methoxypyrazine-2-carboxamide], the “GSH human (glutathione adduct formation)” value in series [1] is recorded as “NF”. For the same compound, at hERG, the “hERG Inhibition @ 10 μM” value turned out to be 7. In addition, the response vs control in vivo at 10 mg/kg with Aβ40 in brain was 88%. In addition, the IC50 in series [2] is greater than 200 µM; in series [3], greater than 200 µM; at CYP3A4, greater than 50 µM; at CYP2D6, 16 µM; on CYP2C9, greater than 50 µM.
On to `NC1=N[C@](CF)(c2cc(NC(=O)c3nn(C(F)F)cc3Cl)ccc2F)C[C@@H](C(F)(F)F)O1` [Example 46, N-(3-((4S,6S)-2-Amino-4-(fluoromethyl)-6-(trifluoromethyl)-5,6-dihydro-4H-1,3-oxazin-4-yl)-4-fluorophenyl)-4-chloro-1-(difluoromethyl)-1H-pyrazole-3-carboxamide], for which the “GSH human (glutathione adduct formation)” value in series [1] was “NF”. Also, the “hERG Inhibition @ 10 μM” value at hERG is reported as 8. The response vs control in vivo at 10 mg/kg with Aβ40 in brain is 61%. Also, the IC50 was greater than 200 µM in series [2]; greater than 200 µM in series [3]; greater than 50 µM on CYP3A4; 24 µM at CYP2D6; greater than 50 µM on CYP2C9.
